Values quoted from earlier work, collected in patent US7550449B2, “Carba cyclic phosphatidic acid derivative” (priority 2002, dated 2009).

Legend:
[1] = system: MM1 cells, highly invasive clones of a rat ascites hepatoma cell line (AH-130); conditions: literature (Mukai et al. 1999)
[2] = system: human fibrosarcoma cells (HT-1080); conditions: cells require neither serum nor LPA for invasion; literature
MM1 cells = conditions: within several minutes of addition, effect not lost with LPA, literature
Rho = conditions: literature (Mukai et al. 2000)

CCCCCCCCCCCCCCCC(=O)OCC1COP(=O)(O)O1 (stereo not shown) [Pal-cPA]
invasion suppressing activity among cPA derivatives with different fatty acids at sn-1 [1]: strongest invasion suppressing activity
suppression of invasion of HT-1080 cells [2]: significantly suppressed
intracellular cAMP concentration (MM1 cells): elevated
LPA-mediated Rho activation (Rho): inhibited
